# From patent US12303505B2, “Tumor-treating pharmaceutical composition” (Eisai R&D Management Co., Ltd., priority 2017, dated 2025)
# “Also recorded” adds a separate entry of the source. Where a name gives a salt, the structure may show the parent alone.
# How the values were obtained:
# Assay type in all cases: in vivo
# [1] = tested on: Human colorectal cancer line Colo-205 cells; test: Antitumor effect in human colorectal cancer line Colo-205 transplantation model, nude mice
# Method: Human colorectal cancer line Colo-205 cells (ATCC) were cultured by using RPMI1640 medium (Wako Pure Chemical Industries, Ltd.) containing 10% FBS in a 5% CO2 incubator under conditions of 37° C. When the cells became an approximately 80% confluent state, the cells were recovered by using trypsin-EDTA. A suspension was prepared by adding Hank's balanced salt solution to the cells so as to be 5.0×10^7 cells/mL. 0.1 mL of the obtained cell suspension was subcutaneously transplanted to the sides of the bodies of five nude mice (CAnN.Cg-Foxn1^nu/CrlCrlj, Charles River Laboratories Japan, Inc.) each of a control group, an E7386 50 mg/kg alone administration group, a lenvatinib mesylate 10 mg/kg alone administration group, and a combined administration group of 50 mg/kg E7386 and 10 mg/kg lenvatinib mesylate. From 8 days after the transplantation, E7386 (50 mg/kg, q.d., 11 days, oral administration) and lenvatinib mesylate (10 mg/kg, q.d., 11 days, oral administration) were administered alone or in combination to the alone administration group or the combined administration group. For the administration, E73 86 was dissolved in 0.1 mol/L hydrochloric acid, and lenvatinib mesylate was dissolved in 3 mmol/L hydrochloric acid. Any drug was not administered to the control group.
# When the start day of administration was defined as day 1, the major axis and minor axis of tumor developed in each mouse were then measured at day 4, day 8, and day 12 by using Digimatic Caliper (Mitutoyo Corp.).
# (§1) The tumor volume and the relative tumor volume (RTV) were calculated according to the following expressions. Tumor volume (mm^3)=Tumor major axis (mm)×Tumor minor axis^2 (mm^2)/2 Relative tumor volume (RTV)=Tumor volume at the measurement day/Tumor volume at the start day of administration
# [2] = tested on: Human hepatocellular carcinoma line SNU398 cells; test: Antitumor effect in human hepatocellular carcinoma line SNU398 transplantation model, nude mice
# Method: Human hepatocellular carcinoma line SNU398 cells (ATCC) were cultured by using RPMI1640 medium (Wako Pure Chemical Industries, Ltd.) containing 10% FBS in a 5% CO2 incubator under conditions of 37° C. When the cells became an approximately 80% confluent state, the cells were recovered by using trypsin-EDTA. A suspension was prepared by adding Hank's balanced salt solution containing 50% Matrigel to the cells so as to be 5.0×10^7 cells/mL. 0.1 mL of the obtained cell suspension was subcutaneously transplanted to the sides of the bodies of eight nude mice (CAnN.Cg-Foxn1^nu/CrlCrlj, Charles River Laboratories Japan, Inc.) each of a control group, an E7386 50 mg/kg alone administration group, a lenvatinib mesylate 10 mg/kg alone administration group, and a combined administration group of 12.5, 25 or 50 mg/kg E7386 and 10 mg/kg lenvatinib mesylate. From 9 days after the transplantation, E7386 (12.5, 25, or 50 mg/kg, b.d.s., 14 days, oral administration) and lenvatinib mesylate (10 mg/kg, q.d., 14 days, oral administration) were administered alone or in combination to the alone administration group or the combined administration group. For the administration, E7386 was dissolved in 0.1 mol/L hydrochloric acid, and lenvatinib mesylate was dissolved in 3 mmol/L hydrochloric acid. Any drug was not administered to the control group.
# When the start day of administration was defined as day 1, the major axis and minor axis of tumor developed in each mouse were then measured at day 6, day 9, day 12, and day 15 by using Digimatic Caliper (Mitutoyo Corp.).
# as §1
# [3] = tested on: human anaplastic thyroid cancer cell line HTC/C3; test: Antitumor effect in human anaplastic thyroid cancer cell line HTC/C3 transplantation model, nude mice
# Method: A human anaplastic thyroid cancer cell line HTC/C3 (JCBR Cell Bank) was cultured by using D-MEM High Glucose medium (Wako Pure Chemical Industries, Ltd.) containing 10% FBS in a 5% CO2 incubator under conditions of 37° C. When the cells became an approximately 80% confluent state, the cells were recovered by using trypsin-EDTA. A suspension was prepared by adding Hank's balanced salt solution containing 50% Matrigel to the cells so as to be 1.0×10^7 cells/mL. 0.1 mL of the obtained cell suspension was subcutaneously transplanted to the sides of the bodies of five nude mice (CAnN.Cg-Foxn1^nu/CrlCrlj, Charles River Laboratories Japan, Inc.) each of a control group, an E7386 12.5, 25 or 50 mg/kg alone administration group, a lenvatinib mesylate 10 mg/kg alone administration group, and a combined administration group of 12.5, 25 or 50 mg/kg E7386 and 10 mg/kg lenvatinib mesylate. From 11 days after the transplantation, E7386 (12.5, 25, or 50 mg/kg, b.d.s., 14 days, oral administration) and lenvatinib mesylate (10 mg/kg, q.d., 14 days, oral administration) were administered alone or in combination to the alone administration group or the combined administration group. For the administration, E7386 was dissolved in 0.1 mol/L hydrochloric acid, and lenvatinib mesylate was dissolved in 3 mmol/L hydrochloric acid. 0.1 mol/L hydrochloric acid (b.d.s., 14 days) was administered to the control group.
# When the start day of administration was defined as day 1, the major axis and minor axis of tumor developed in each mouse were then measured at day 4, day 8, day 11, and day 15 by using Digimatic Caliper (Mitutoyo Corp.).
# as §1
# [4] = tested on: Human hepatocellular carcinoma line HepG2 cells; test: Tumor vessel suppressive effect (CD31/α-SMA co-staining, MVD and PCI) in human hepatocellular carcinoma HepG2 subcutaneous transplantation model, nude mice; conditions: FIG. 22; lenvatinib mesylate 10 mg/kg q.d. alone, 14 days oral; vs control group
# Method: For the administration, E7386 was dissolved in 0.1 mol/L hydrochloric acid, and lenvatinib mesylate was dissolved in 3 mmol/L hydrochloric acid. Any drug was not administered to the control group.
# [5] = Day 15, E7386 50 mg/kg b.d.s. oral alone
# [6] = Day 4, lenvatinib mesylate 10 mg/kg q.d. oral alone
# [7] = Day 8, lenvatinib mesylate 10 mg/kg q.d. oral alone
# [8] = Day 12, lenvatinib mesylate 10 mg/kg q.d. oral alone
# [9] = Day 15, lenvatinib mesylate 10 mg/kg q.d. oral alone
structure (smiles),measurement,setting,value
"C=CCN1CC(=O)N2[C@@H](Cc3ccc(O)cc3F)C(=O)N(Cc3cccc(N4CC(N5CCN(CC)CC5)C4)n3)C[C@@H]2N1C(=O)NCc1ccccc1 [E7386, (6S,9aS)—N-Benzyl-8-({6-[3-(4-ethylpiperazin-1-yl)azetidin-1-yl]pyridin-2-yl}methyl)-6-(2-fluoro-4-hydroxybenzyl)-4,7-dioxo-2-(prop-2-en-1-yl)hexahydro-2H-pyrazino[2,1-c][1,2,4]triazine-1(6H)-carboxamide]","Relative tumor volume (RTV), mean±SD","[1]; Day 4, E7386 50 mg/kg q.d. oral alone",1.98 ± 0.24
same,"Relative tumor volume (RTV), mean±SD","[1]; Day 8, E7386 50 mg/kg q.d. oral alone",3.87 ± 0.74
same,"Relative tumor volume (RTV), mean±SD","[1]; Day 12, E7386 50 mg/kg q.d. oral alone",4.94 ± 1.41
same,"Relative tumor volume (RTV), mean±SD","[2]; Day 6, E7386 50 mg/kg b.d.s. oral alone",3.74 ± 0.75
same,"Relative tumor volume (RTV), mean±SD","[2]; Day 9, E7386 50 mg/kg b.d.s. oral alone",6.31 ± 1.74
same,"Relative tumor volume (RTV), mean±SD","[2]; Day 12, E7386 50 mg/kg b.d.s. oral alone",7.33 ± 0.89
same,"Relative tumor volume (RTV), mean±SD",[2]; [5],10.1 ± 1.03
same,"Relative tumor volume (RTV), mean±SD","[3]; Day 4, E7386 12.5 mg/kg b.d.s. oral alone",1.68 ± 0.13
same,"Relative tumor volume (RTV), mean±SD","[3]; Day 4, E7386 25 mg/kg b.d.s. oral alone",1.72 ± 0.10
same,"Relative tumor volume (RTV), mean±SD","[3]; Day 4, E7386 50 mg/kg b.d.s. oral alone",1.74 ± 0.09
same,"Relative tumor volume (RTV), mean±SD","[3]; Day 8, E7386 12.5 mg/kg b.d.s. oral alone",4.02 ± 0.40
same,"Relative tumor volume (RTV), mean±SD","[3]; Day 8, E7386 25 mg/kg b.d.s. oral alone",3.99 ± 0.62
same,"Relative tumor volume (RTV), mean±SD","[3]; Day 8, E7386 50 mg/kg b.d.s. oral alone",4.00 ± 0.66
same,"Relative tumor volume (RTV), mean±SD","[3]; Day 11, E7386 12.5 mg/kg b.d.s. oral alone",6.27 ± 0.93
same,"Relative tumor volume (RTV), mean±SD","[3]; Day 11, E7386 25 mg/kg b.d.s. oral alone",6.44 ± 1.09
same,"Relative tumor volume (RTV), mean±SD","[3]; Day 11, E7386 50 mg/kg b.d.s. oral alone",5.85 ± 1.42
same,"Relative tumor volume (RTV), mean±SD","[3]; Day 15, E7386 12.5 mg/kg b.d.s. oral alone",8.58 ± 2.48
same,"Relative tumor volume (RTV), mean±SD","[3]; Day 15, E7386 25 mg/kg b.d.s. oral alone",8.81 ± 2.14
same,"Relative tumor volume (RTV), mean±SD",[3]; [5],7.83 ± 2.28
"COc1cc2nccc(Oc3ccc(NC(=O)NC4CC4)c(Cl)c3)c2cc1C(N)=O [Lenvatinib mesylate, 4-(3-chloro-4-(cyclopropylaminocarbonyl)aminophenoxy)-7-methoxy-6-quinolinecarboxamide, reference compound]","Relative tumor volume (RTV), mean±SD",[1]; [6],1.41 ± 0.30
same,"Relative tumor volume (RTV), mean±SD",[1]; [7],1.75 ± 0.13
same,"Relative tumor volume (RTV), mean±SD",[1]; [8],1.94 ± 0.31
same,PCI (pericyte coverage index) (in words),[4],markedly increased; also recorded: statistically significantly increased pericyte coverage as compared with the control group
same,"Relative tumor volume (RTV), mean±SD","[2]; Day 6, lenvatinib mesylate 10 mg/kg q.d. oral alone",3.98 ± 1.00
same,"Relative tumor volume (RTV), mean±SD","[2]; Day 9, lenvatinib mesylate 10 mg/kg q.d. oral alone",6.48 ± 1.74
same,"Relative tumor volume (RTV), mean±SD",[2]; [8],8.33 ± 2.08
same,"Relative tumor volume (RTV), mean±SD",[2]; [9],9.71 ± 2.30
same,"Relative tumor volume (RTV), mean±SD",[3]; [6],1.71 ± 0.10
same,"Relative tumor volume (RTV), mean±SD",[3]; [7],3.57 ± 0.54
same,"Relative tumor volume (RTV), mean±SD","[3]; Day 11, lenvatinib mesylate 10 mg/kg q.d. oral alone",5.15 ± 1.07
same,"Relative tumor volume (RTV), mean±SD",[3]; [9],6.23 ± 1.71
